Several values for one entry are separate records, joined by “and”; a condition that tells them apart may be missing. Equal entries are not always repeated. Where two headings read alike, the source gives them in different places.
Legend:
[1] = test system: P. falciparum HB3 strain; assay: Antiplasmodial activity against P. falciparum HB3 strain in culture; assay type: cell-based, Plasmodium falciparum; settings: for SI (selectivity index): Vero CC50 versus HB3 IC50
Method: (§1) In vitro activity of BZ. All BZ derivatives were tested at 10 μM against the HB3 strain of Pf, and for those compounds with a percentage of growth inhibition (% GI) higher than 50%, the IC50 values were determined. In addition, their cytotoxicity on epithelial Vero cell cultures was evaluated to calculate their selectivity indexes (SI), Table 1. An index of 10 or above is expected for a lead compound.
(§2) The chloroquine-sensitive […] and chloroquine-resistance 7G8 strain […] of P. falciparum were used throughout. Infected erythrocytes were kept in culture using the protocol established by Haynes et al.[44], basically utilizing human O^+ erythrocytes kept in an RPMI medium supplemented with glutamine and 10% human serum incubated in an atmosphere of 90% N2, 5% O2 and 5% CO2.

[2] = test system: Vero cells; assay: Cytotoxicity on epithelial Vero cell cultures; assay type: cell-based; settings: Vero cells
Method: as §1

[3] = Cytotoxicity on epithelial Vero cell cultures; assay type: cell-based; settings: African green monkey, epithelial Vero cells
Method: as §1

[4] = test system: plasma membrane of parasite culture / erythrocytes; assay: Propidium iodide incorporation assay (membrane integrity); assay type: cell-based, Plasmodium falciparum; settings: 3 h incubation, fluorometry
Method: The integrity of the plasma membrane under the action of certain antiplasmodial compounds was assessed through the use of two methodologies. First, the absorption of propidium iodide, to which intact membranes are impermeable, was measured. Second, the presence of heme in the culture media, which indicates a leakage of the contents of the erythrocyte or its complete lysis (hemolysis), was analyzed.
Figure 3 Membrane integrity tests. BZ 1, 5, 16, 26 and 33 were tested in triplicates in two independent experiments. (a) Incorporation of propidium iodide (PI) was analyzed through fluorometry after 3 h incubation with the compounds. (b) Hemolysis was measured by light absorbance 24 h after exposure to the compounds. One-way ANOVA with Turkey´s comparison was used for analysis of significance. ****p < 0.001.
Manufacturer’s instructions (BD PharmingenTM) were followed. Briefly, 200 µL of parasite culture at 2% parasitemia or uninfected erythrocytes, at 2% hematocrit, were incubated with each compound for 3 h at 37 °C. Untreated samples were cultured in the same plate. After incubation, 2 µL of Propidium Iodide was added and incubated for 15 min at RT while protected from light. Fluorescence was read in a fluorometer at excitation and emission wavelengths of 485/20 and 645/40 nm, respectively.

[5] = test system: P. falciparum-infected cultures; assay: Intracellular reactive oxygen species (ROS) production in P. falciparum; assay type: cell-based, Plasmodium falciparum; settings: 1 µM; 0.5, 6 and 9 h
Method: Also, the intracellular production of oxygen reactive species (ROS) was monitored for the same antiplasmodial compounds. The level of ROS production was compared between the samples and that of the untreated parasites. […] This would point to the conformation of such molecules targeting a specific molecule or process of the parasite.  Figure 4 Effect of selected benzimidazole derivatives on ROS production. Five potent compounds were incubated with P. falciparum-infected cultures and the production of reactive oxygen species was measured through fluorometry at 0.5, 6 and 9 h after their addition at 1 µM. As positive control, a sample containing hydrogen peroxide at 200 μM was added. Samples were measured in triplicates. One-way ANOVA with Turkey´s comparison was used to measure significance with respect to the untreated control at each different time point. n = 2. (a) BZ 1, (b) BZ 5, (c) BZ 16, (d) BZ 26 and (e) BZ 33. *p < 0.05, **p < 0.01, ***p < 0.005. Intracellular ROS formation was measured in a fluorimeter using the CM-H2DCFDA reactive dye from Molecular Probes® (Eugene OR, USA). Hydrogen peroxide was used as a positive control at a final concentration of 200 µM. The level of ROS present was inferred through the amount of oxidized DCF[45].

[6] = test system: 7G8 P. falciparum parasites; assay: Antiplasmodial activity against chloroquine-resistant 7G8 P. falciparum; assay type: cell-based, Plasmodium falciparum; settings: for IC50: Plasmodium falciparum
Description: The mechanism used by Pf to prevent intoxication with free heme once hemoglobin is degraded is to form hemozoin crystals that capture heme. Mefloquine and other common antimalarials interfere with this pathway, resulting in the death of the parasite.
as §2

[7] = HB3 strain (chloroquine-sensitive), read-out: IC50
[8] = Plasmodium falciparum, HB3 strain (chloroquine-sensitive), read-out: IC50
[9] = Plasmodium falciparum, at 10 μM, HB3 strain, read-out: GI (growth inhibition percentage)

SMILES | GI (growth inhibition percentage) ([1]; at 10 μM, HB3 strain) | CC50 [3] | IC50 [1, 8] | inhibition at 10 µM [1, 9] | further results
Cc1ccc2[nH]c(NC(=O)c3ccc(C#N)cn3)nc2c1 [BZ 8] | inactive and 37.4% | – | – | – | –
Cc1ccc2[nH]c(NC(=O)c3ccc(-c4ccccc4)cn3)nc2c1 [BZ 7] | 57.5% | – | – | – | CC50 [2]: 19.5 µM; IC50 [1, 7]: 7.8 µM
Cc1ccc2[nH]c(NC(=O)c3ccncc3)nc2c1 [BZ 3] | inactive and 0.0% | – | – | – | –
COc1ccc2nc(C(=O)Nc3nc4cc(Cl)ccc4[nH]3)ccc2c1 [BZ 24] | 22.3% | – | – | – | –
CCCCCCCCC(NC(=O)OC(C)(C)C)C(=O)Nc1ccc2[nH]c(NC(=O)c3ccccn3)nc2c1 (centres unmarked) [BZ 31] | – | – | – | – | CC50 [2]: 26.8 µM; IC50 [1, 7]: 8.5 µM
O=C(Nc1nc2cc(Cl)ccc2[nH]1)c1ccnc2ccccc12 [BZ 22, N-(5-Chloro-1H-benzimidazol-2-yl)quinoline-4-carboxamide] | – | 16.1 µM | 2.3 µM | 88.9% | melting point: 262 °C; SI (selectivity index) [1]: 6.9
CCCCc1ccc(C(=O)Nc2nc3cc(C)c(C)cc3[nH]2)nc1 [BZ 34] | 74.2% | – | – | – | CC50 [2]: 3.2 µM; IC50 [1, 7]: 3.4 µM
Cc1ccc(C(=O)Nc2nc3cc(C)ccc3[nH]2)nc1 [BZ 5, 5-Methyl-N-(5-methyl-1H-benzimidazol-2-yl)picolinamide] | – | 4.5 µM | 1.5 µM | 100% | Membrane integrity: incorporation of propidium iodide [4]: some permeation in the membrane, although not significant; Intracellular ROS production versus untreated parasites [5]: no significant difference at any point; melting point: 256 °C
CCCCc1ccc(C(=O)Nc2nc3cc(C)ccc3[nH]2)nc1 [BZ 6, 5-Butyl-N-(5-methyl-1H-benzimidazol-2-yl)picolinamide] | – | 6.6 µM | 2.4 µM | 90.9% | melting point: 245 °C; SI (selectivity index) [1]: 2.7
Cc1ccc2[nH]c(NC(=O)c3ccnc4ccccc34)nc2c1 [BZ 10] | 60.5% | – | – | – | –
Cc1cccnc1C(=O)Nc1nc2cc(Cl)ccc2[nH]1 [BZ 13, N-(5-Chloro-1H-benzimidazol-2-yl)-3-methylpicolinamide] | – | 8.6 µM | 2.8 µM | 87.3% | melting point: 180 °C; SI (selectivity index) [1]: 3.0
Cc1cc2nc(NC(=O)c3ccc(-c4ccccc4)cn3)[nH]c2cc1C [BZ 35] | 64.7% | – | – | – | CC50 [2]: 9.7 µM; IC50 [1, 7]: 7.3 µM
O=C(Nc1nc2cc(Cl)c(Cl)cc2[nH]1)c1ccccn1 [BZ 36, N-(5,6-Dichloro-1H-benzimidazol-2-yl)picolinamide] | – | 11.8 µM | 2.4 µM | 81.9% | melting point: 281 °C; SI (selectivity index) [1]: 5.0
COc1ccnc(C(=O)Nc2nc3cc(Cl)ccc3[nH]2)c1 [BZ 15, N-(5-Chloro-1H-benzimidazol-2-yl)-4-methoxypicolinamide] | – | 2 µM | 1.5 µM | 89.8% | melting point: 245 °C; SI (selectivity index) [1]: 1.4
O=C(Nc1nc2cc([N+](=O)[O-])ccc2[nH]1)c1ccccn1 [BZ 29] | 96.0% | – | – | – | CC50 [2]: 13.9 µM; IC50 [1, 7]: 5.1 µM
O=C(Nc1nc2cc(Cl)ccc2[nH]1)c1ncccc1Cl [BZ 14] | 11.9% | – | – | – | –

SMILES | GI (growth inhibition percentage) ([1]; at 10 μM, HB3 strain) | CC50 [3] | IC50 [1, 8] | inhibition at 10 µM [1, 9] | further results
Cc1ccc2[nH]c(NC(=O)c3cccnc3)nc2c1 [BZ 2] | inactive and 0.0% | – | – | – | –
O=C(Nc1nc2cc(Cl)ccc2[nH]1)c1nccc2ccccc12 [BZ 23] | 53.7% | – | – | – | –
CCCCc1ccc(C(=O)Nc2nc3cc(Cl)ccc3[nH]2)nc1 [BZ 17] | 89.7% | – | – | – | CC50 [2]: 3.4 µM; IC50 [1, 7]: 3.5 µM
Cc1cccc(C(=O)Nc2nc3cc(Cl)ccc3[nH]2)n1 [BZ 19] | inactive and 28.0% | – | – | – | –
O=C(Nc1nc2cc(Cl)ccc2[nH]1)c1ccccn1 [BZ 12, N-(5-chloro-1H-benzimidazol-2-yl)picolinamide] | – | 15.4 µM | 1.8 µM | 91.4% | IC50 ([6]; 7G8 strain (chloroquine-resistant), read-out: 7G8 Pf IC50): 3.6 µM; SI (selectivity index) ([6]; Vero CC50 versus 7G8 IC50): 4.2; SI (selectivity index) [1]: 8.7
Cc1ccc2[nH]c(NC(=O)c3nccc4ccccc34)nc2c1 [BZ 11] | 0.0% | – | – | – | –
COc1ccc2[nH]c(NC(=O)c3ccc(-c4ccccc4)cn3)nc2c1 [BZ 28] | 72.7% | – | – | – | CC50 [2]: 14.6 µM; IC50 [1, 7]: 4.4 µM
COc1ccc2[nH]c(NC(=O)c3ccccn3)nc2c1 [BZ 25] | 50.9% | – | – | – | –
O=C(Nc1nc2cc(Cl)ccc2[nH]1)c1ccc(-c2ccccc2)cn1 [BZ 18, N-(5-Chloro-1H-benzimidazol-2-yl)-5-phenylpicolinamide] | – | 0.6 µM | 2.3 µM | 99.2% | melting point: 214 °C; SI (selectivity index) [1]: 0.3
CCN(CC)CCCC(C)Nc1ccnc2cc(Cl)ccc12 (centres unmarked) [Chloroquine, reference compound] | – | – | – | – | IC50 ([6]; 7G8, read-out: 7G8 Pf IC50): 0.23 µM; IC50 ([1]; Plasmodium falciparum, HB3): 0.028 µM; inhibition at 10 µM ([1]; Plasmodium falciparum, HB3, read-out: GI (growth inhibition percentage)): 100%
Cc1ccc2[nH]c(NC(=O)c3ncccc3C)nc2c1 [BZ 4, 3-Methyl-N-(5-methyl-1H-benzimidazol-2-yl)picolinamide] | – | 6.8 µM | 2.5 µM | 92.4% | melting point: 173 °C; SI (selectivity index) [1]: 2.8
Cc1ccc2[nH]c(NC(=O)c3ccc4ccccc4n3)nc2c1 [BZ 9] | 73.1% | – | – | – | CC50 [2]: 63 µM; IC50 [1, 7]: 14.1 µM
O=C(Nc1nc2cc(Cl)ccc2[nH]1)c1cnc2ccccc2c1 [BZ 21] | 0.0% | – | – | – | –
CCCCCCCCC(N)C(=O)Nc1ccc2[nH]c(NC(=O)c3ccccn3)nc2c1 (centres unmarked) [BZ 32] | – | – | – | – | CC50 [2]: 16.4 µM; IC50 [1, 7]: 6.8 µM
O=C(Nc1nc2cc(Cl)ccc2[nH]1)c1ccc2ccccc2n1 [BZ 20] | 25.9% | – | – | – | –
CCCCc1ccc(C(=O)Nc2nc3cc(OC)ccc3[nH]2)nc1 [BZ 27, 5-Butyl-N-(5-methoxy-1H-benzimidazol-2-yl)picolinamide] | – | 8.5 µM | 1.2 µM | 100% | melting point: 129 °C; SI (selectivity index) [1]: 7.4

From PMC9822940, “Antiplasmodial activity, structure–activity relationship and studies on the action of novel benzimidazole derivatives” (Scientific Reports, 2023)
